Converted amounts (≈) assume the structure as drawn.
How the values were obtained:
[1] = tested on: Aspergillus Niger (ATCC 16404); experiment: Broth micro-dilution susceptibility test (MIC); type: cell-based; details: ATCC16404, 120 h, geometric mean of two single experiments, five days at 35° C.
Experimental: (§1) Trichophyton Rubrum (ATCC 28188, PBI International); Trichophyton Mentagrophytes (ATCC 9533, PBI International); Aspergillus Niger (ATCC 16404, PBI International); Scopulariopsis Brevicaulis (ATCC 36840, DSMZ); Candida Albicans (ATCC 90028, PBI International); Candida Glabrata (ATCC 90030, DSMZ).
(§2) Strains were prepared from freeze-dried ampoules or freeze-dried pellets. An isolation of the suspensions was made on Potato Dextrose Agar (PDA) to test the strains purity. A strains' massive growth was then made streaking microbial suspensions on PDA plates.
(§3) Incubation was at 30° C. for 48-72 Hours (Candida yeasts) and for 7-10 days (filamentous fungi).
(§4) The yeasts' colonies and the filamentous fungi's conidia were harvested with 3-5 mL of RPMI 1640+50% glycerol and the aliquots frozen at −80° C.
(§5) Compounds' minimal inhibition concentration (MIC) was determined through broth micro-dilution susceptibility test using a method developed in agreement with the National Committee for Clinical Laboratory Standards (NCCLS) (National Committee for Clinical Laboratory Standards. Reference Method for Broth Dilution Antifungal Susceptibility Testing of Yeasts; Approved standard-Second Edition M27-A2. 2002; Vol. 22, No. 15) (National Committee for Clinical Laboratory Standards. Reference Method for Broth Dilution Antifungal Susceptibility Testing of Filamentous Fungi; Approved standard M38-A. 2002; Vol. 22, No. 16).
(§6) Assays were carried out in RPMI 1640 with L-glutamine medium buffered to pH 7 with 0.165M 3-(N-morpholino)propanesulfonic acid (MOPS) and 10M NaOH and supplemented with 18 g glucose/liter. The tests were performed using 96 well sterile plates (inoculum size of 1×10^5 CFU/mL). Compounds stock solutions were prepared at 12.8 mg/mL in 100% DMSO. A series of twofold dilutions were prepared in plate using RPMI 1640. Final concentrations ranged from 0.125 to 128 μg/mL at 1% DMSO.

[2] = tested on: Candida Albicans (ATCC 90028); experiment: Broth micro-dilution susceptibility test (MIC); type: cell-based; details: ATCC90028, geometric mean of two single experiments, 48 h at 35° C.
Experimental: as §1, §2, §3, §4, §5, §6

[3] = tested on: Candida Glabrata (ATCC 90030); experiment: Broth micro-dilution susceptibility test (MIC); type: cell-based; details: Nakaseomyces glabratus, ATCC90030; geometric mean of two single experiments; 48 h at 35° C.
Experimental: as §1, §2, §3, §4, §5, §6

[4] = tested on: Scopulariopsis Brevicaulis (ATCC 36840); experiment: Broth micro-dilution susceptibility test (MIC); type: cell-based; details: ATCC36840, 120 h, geometric mean of two single experiments, five days at 35° C.
Experimental: as §1, §2, §3, §4, §5, §6

[5] = tested on: Trichophyton Mentagrophytes (ATCC 9533); experiment: Broth micro-dilution susceptibility test (MIC); type: cell-based; details: ATCC9533, 120 h, geometric mean of two single experiments, five days at 35° C., read-out: MIC Tricophyton Mentagrophytes ATCC 9533
Experimental: as §1, §2, §3, §4, §5, §6

[6] = tested on: Trichophyton Rubrum (ATCC 28188); experiment: Broth micro-dilution susceptibility test (MIC); type: cell-based; details: ATCC28188, 120 h, geometric mean of two single experiments, five days at 35° C., read-out: MIC Trycophyton Rubrum ATCC 28188
Experimental: as §1, §2, §3, §4, §5, §6

[7] = tested on: Candida Glabrata (ATCC 90030); experiment: Assessment of the mechanism of action: antifungal activity with or without 100 μM Fe3+; type: cell-based; details: 100 μM FeCl3 in the test medium, OD at 540 nm
Experimental: To verify if the compounds mechanism of action is the chelation of iron ions, the MIC determination with Candida glabrata (ATCC 90030) strain was performed by the addition of excessive iron ions (100 μM FeCl3) in the test medium. The viability of cells exposed to drugs, with or without the metal ion Fe^3+, was evaluated by the OD measure at 540 nm.
The potency of compounds described in Example 3, 4, 11 12, E8 and NiK-29298 were evaluated on Candida glabrata in presence and in absence of 100 μM (100 micromoles) Fe^3+.
In all figures, the lines and dots represent the percent inhibition of the fungal growth (in ordinate) by adding different concentrations of antifungal agents (in abscissa). Blue lines and dots are the experiments performed without iron supplementation, while red lines and dots represent the results of the experiments performed in presence of 100 μM Fe^3+. […] Conversely, Fe^3+ has no effect on amphotericin, an antifungal agent known in the art to have a mechanism of action different from that of ciclopirox.

[8] = tested on: 6 strains tested, including yeasts, dermatophytes and molds; experiment: Spectrum of antifungal activity over the 6 strains tested; type: cell-based; details: 6 strains: yeasts
Experimental: as §1, §5, §6

[9] = tested on: invasive aspergillosis; details: daily administered at 10 mg/kg; cited from earlier work

SMILES | MIC [1] | MIC [2] | MIC [3] | MIC [4] | MIC [5] | MIC [6] | Effect of Fe3+ on the antifungal activity (percent inhibition of fungal growth) [7] | Spectrum of antifungal activity [8] | rates of nephrotoxicity [9]
O=C(NCC1CCCCC1)c1ccc2cccnc2c1O [Example 2, 8-Hydroxy-N-(cyclohexylmethyl)quinoline-7-carboxamide] | 0.35 µg/mL (≈ 1.23 µM) | 1.41 µg/mL (≈ 4.96 µM) | 1.41 µg/mL (≈ 4.96 µM) | 2 µg/mL (≈ 7.03 µM) | 0.71 µg/mL (≈ 2.5 µM) | 1 µg/mL (≈ 3.52 µM) | – | – | –
O=C(NCc1ccccc1O)c1ccc2cccnc2c1O [Example 8, 8-Hydroxy-N-(2-hydroxybenzyl)quinoline-7-carboxamide] | 0.25 µg/mL (≈ 0.849 µM) | 2 µg/mL (≈ 6.8 µM) | 2 µg/mL (≈ 6.8 µM) | 1 µg/mL (≈ 3.4 µM) | 0.5 µg/mL (≈ 1.7 µM) | 0.71 µg/mL (≈ 2.41 µM) | – | – | –
O=C(NCc1ccc(OCc2ccccc2)cc1)c1ccc2ncccc2c1 [Example E8] | – | – | – | – | – | – | not inhibited | active only on yeasts | –
O=C(NCc1ccc(Cl)cc1)c1ccc2cccnc2c1O [Example 4, 8-Hydroxy-N-(4-chlorobenzyl)quinoline-7-carboxamide] | 0.35 µg/mL (≈ 1.12 µM) | 2 µg/mL (≈ 6.39 µM) | 1 µg/mL (≈ 3.2 µM) | 0.71 µg/mL (≈ 2.27 µM) | 0.5 µg/mL (≈ 1.6 µM) | 0.71 µg/mL (≈ 2.27 µM) | – | – | –
C[C@@H]1[C@H](O)[C@@H](C)/C=C/C=C/C=C/C=C/C=C/C=C/C=C/[C@H](O[C@@H]2O[C@H](C)[C@@H](O)[C@H](N)[C@@H]2O)C[C@@H]2O[C@](O)(C[C@@H](O)C[C@@H](O)[C@H](O)CC[C@@H](O)C[C@@H](O)CC(=O)O[C@H]1C)C[C@H](O)[C@H]2C(=O)O [amphotericin, Amphotericin B] | – | – | – | – | – | – | no effect | – | 31%
O=C(NCc1ccccc1)c1ccc2cccnc2c1O [Example 3, 8-Hydroxy-N-benzyl-quinoline-7-carboxamide] | 0.18 µg/mL (≈ 0.647 µM) | 1 µg/mL (≈ 3.59 µM) | 1 µg/mL (≈ 3.59 µM) | 0.35 µg/mL (≈ 1.26 µM) | 0.18 µg/mL (≈ 0.647 µM) | 0.35 µg/mL (≈ 1.26 µM) | – | – | –
O=C(NCc1ccccc1)c1ccc2ncccc2c1 [NiK-29298] | – | – | – | – | – | – | not inhibited | active only on yeasts | –
O=C(NCc1ccc(C(F)(F)F)cc1)c1ccc2cccnc2c1O [Example 6, 8-Hydroxy-N-(4-(trifluoromethyl)benzyl)quinoline-7-carboxamide] | 0.5 µg/mL (≈ 1.44 µM) | 1.41 µg/mL (≈ 4.07 µM) | 1.41 µg/mL (≈ 4.07 µM) | 1.41 µg/mL (≈ 4.07 µM) | 1 µg/mL (≈ 2.89 µM) | 1.41 µg/mL (≈ 4.07 µM) | – | – | –
O=C(NCc1cccs1)c1ccc2cccnc2c1O [Example 1, 8-Hydroxy-N-(thiophen-2-ylmethyl)quinoline-7-carboxamide] | 0.25 µg/mL (≈ 0.879 µM) | 1 µg/mL (≈ 3.52 µM) | 1 µg/mL (≈ 3.52 µM) | 0.25 µg/mL (≈ 0.879 µM) | 0.5 µg/mL (≈ 1.76 µM) | 0.5 µg/mL (≈ 1.76 µM) | – | – | –
COc1ccc(NC(=O)c2ccc3cccnc3c2O)cc1 [Example 5, 8-Hydroxy-N-(4-methoxyphenyl)quinoline-7-carboxamide] | 0.71 µg/mL (≈ 2.41 µM) | 0.5 µg/mL (≈ 1.7 µM) | 0.71 µg/mL (≈ 2.41 µM) | 0.71 µg/mL (≈ 2.41 µM) | 0.5 µg/mL (≈ 1.7 µM) | 0.35 µg/mL (≈ 1.19 µM) | – | – | –
O=C(NCc1ccco1)c1ccc2cccnc2c1O [Example 9, 8-Hydroxy-N-(furan-2-ylmethyl)quinoline-7-carboxamide] | 1 µg/mL (≈ 3.73 µM) | 0.71 µg/mL (≈ 2.65 µM) | 0.71 µg/mL (≈ 2.65 µM) | 0.71 µg/mL (≈ 2.65 µM) | 1 µg/mL (≈ 3.73 µM) | 0.71 µg/mL (≈ 2.65 µM) | – | – | –
O=C(Nc1ccccc1)c1ccc2cccnc2c1O [Example 7, 8-Hydroxy-N-phenyl-quinoline-7-carboxamide] | 0.5 µg/mL (≈ 1.89 µM) | 0.5 µg/mL (≈ 1.89 µM) | 1 µg/mL (≈ 3.78 µM) | 2 µg/mL (≈ 7.57 µM) | 0.71 µg/mL (≈ 2.69 µM) | 0.5 µg/mL (≈ 1.89 µM) | – | – | –
Cc1cc(C2CCCCC2)n(O)c(=O)c1 [ciclopirox] | – | – | – | – | – | – | completely inhibited | – | –
COc1ccc(CNC(=O)c2ccc3cccnc3c2O)cc1 [Example 11, 8-Hydroxy-N-(4-methoxybenzyl)quinoline-7-carboxamide] | 1 µg/mL (≈ 3.24 µM) | 2 µg/mL (≈ 6.49 µM) | – | 1 µg/mL (≈ 3.24 µM) | 1 µg/mL (≈ 3.24 µM) | 1 µg/mL (≈ 3.24 µM) | – | – | –
O=C(NCc1cccnc1)c1ccc2cccnc2c1O [Example 10, 8-Hydroxy-N-(pyridin-3-ylmethyl)quinoline-7-carboxamide] | 1 µg/mL (≈ 3.58 µM) | 4 µg/mL (≈ 14.3 µM) | 11.3 µg/mL (≈ 40.5 µM) | 1 µg/mL (≈ 3.58 µM) | 2 µg/mL (≈ 7.16 µM) | 2 µg/mL (≈ 7.16 µM) | – | – | –

— patent US8969380B2, “Secondary 8-hydroxyquinoline-7-carboxamide derivatives for use as antifungal agents” (Polichem SA, priority 2009, dated 2015)
